Data taken from ChEMBL document CHEMBL5331122, “Structure-Activity Relationship Study of Antimicrobial Peptide PE2 Delivered Novel Linear Derivatives with Potential of Eradicating Biofilms and Low Incidence of Drug Resistance” (J Med Chem, 2023).
Calls of active or inactive are those of the source. No cut-off for these calls is given here. Where a SMILES comes first, the peptide text is derived from it. Bridges are numbered along the chain shown (N, C = ends). [ ]: non-standard residue; d: D form. The star is where a group is joined. Heptanoyl(6-Me) = CC(C)CCCCC(=O)*; dDab = NCC[C@@H](N)C(=O)O; Dab = NCC[C@H](N)C(=O)O

How the values were obtained:
[1] = tested on: Cell membrane; test: Induction of cell membrane damage in Staphylococcus aureus ATCC 25923 at 2 times MIC after 0.5 to 2 hrs by propidium iodide staining based flow cytometer assay; assay type: subcellular; conditions: time 0.5-2 hrs
[2] = tested on: Staphylococcus aureus; test: Antibiofilm activity against Staphylococcus aureus ATCC 25923 assessed as biofilm eradication at 4 times MIC incubated for 24 hrs; assay type: functional, organism-based
[3] = tested on: Escherichia coli; test: Synergistic antibacterial activity against gentamycin-resistant Escherichia coli ATCC 25922 incubated for 18 hrs by checkerboard assay; assay type: functional, organism-based
[4] = tested on: Staphylococcus aureus; test: Induction of membrane morphological changes in Staphylococcus aureus ATCC 25923 assessed as appearance of broken bacterial cells at 4 times MIC measured at 0.5 to 2 hrs by SEM analysis; assay type: functional, organism-based; conditions: time 0.5-2 hrs
[5] = tested on: Escherichia coli; test: Induction of membrane morphological changes in Escherichia coli ATCC 25922 at 4 times MIC measured at 0.5 to 2 hrs by SEM analysis; assay type: functional, organism-based; conditions: time 0.5-2 hrs
[6] = tested on: Staphylococcus aureus; test: Inhibition of biofilm formation in Staphylococcus aureus ATCC 25923 assessed as inhibition of biofilm formation at 1/4 times MIC incubated for 24 hrs by crystal violet staining based analysis; assay type: functional, organism-based
[7] = tested on: Klebsiella pneumoniae; test: Antibacterial activity against Klebsiella pneumoniae ATCC 700603 infected in BALB/c mouse pneumonia model at 5 to 10 mg/kg, ip measured at 4 to 12 hrs; assay type: functional, organism-based; conditions: dose 5-10 mg/kg, time 4-12 hrs
[8] = tested on: Escherichia coli; test: Inhibition of biofilm formation in Escherichia coli ATCC 25922 assessed as inhibition of biofilm formation at 1 to 2 times MIC incubated for 24 hrs by crystal violet staining based analysis; assay type: functional, organism-based
[9] = tested on: Escherichia coli; test: Bactericidal activity against Escherichia coli ATCC 25922 assessed as inhibition of bacterial growth at 2 times MIC measured upto 360 mins by time-kill assay; assay type: functional, organism-based
[10] = tested on: Staphylococcus aureus; test: Bactericidal activity against Staphylococcus aureus ATCC 25923 assessed as inhibition of bacterial growth at 0.5 to 2 times MIC by time-kill assay; assay type: functional, organism-based; conditions: time <= 360.0 min, TDE = time-dependent effect
[11] = tested on: Staphylococcus aureus; test: Bactericidal activity against Staphylococcus aureus ATCC 25923 assessed as inhibition of bacterial growth at 1 times MIC measured upto 360 mins by time-kill assay; assay type: functional, organism-based
[12] = tested on: Escherichia coli; test: Synergistic antibacterial activity against rifampicin-resistant Escherichia coli ATCC 25922 incubated for 18 hrs by checkerboard assay; assay type: functional, organism-based
[13] = tested on: Staphylococcus aureus; test: Antibiofilm activity against Staphylococcus aureus ATCC 25923 assessed as biofilm eradication at 8 times MIC incubated for 24 hrs; assay type: functional, organism-based
[14] = tested on: Escherichia coli; test: Additive antibacterial activity against Escherichia coli ATCC 25922 assessed as bacterial growth inhibition incubated for 18 hrs in presence of gentamycin by checkerboard assay; assay type: functional, organism-based
[15] = tested on: Staphylococcus aureus; test: Inhibition of biofilm formation in Staphylococcus aureus ATCC 25923 assessed as inhibition of biofilm formation at 1 times MIC incubated for 24 hrs by crystal violet staining based analysis; assay type: functional, organism-based
[16] = tested on: Escherichia coli; test: Bactericidal activity against Escherichia coli ATCC 25922 assessed as inhibition of bacterial growth at 0.5 to 2 times MIC measured at 90 mins by time-kill assay; assay type: functional, organism-based
[17] = tested on: Cell membrane; test: Induction of inner membrane permeabilization in Escherichia coli ML-35 ATCC 43837 assessed as increase in fluorescence intensity at 1 to 4 times MIC incubated upto 150 mins by ONPG staining based analysis; assay type: subcellular
[18] = tested on: Klebsiella pneumoniae; test: Antibacterial activity against Klebsiella pneumoniae ATCC 700603 infected in BALB/c mouse pneumonia model assessed as reduction in lung bacterial load at 5 to 10 mg/kg, ip measured at 4 to 12 hrs; assay type: functional, organism-based; conditions: dose 5-10 mg/kg, time 4-12 hrs
[19] = tested on: Cell membrane; test: Induction of outer membrane permeabilization in Escherichia coli ATCC 25922 assessed as increase in fluorescence intensity at 2 times MIC measured for 12 hrs by NPN uptake assay; assay type: subcellular
[20] = tested on: Escherichia coli; test: Inhibition of biofilm formation in Escherichia coli ATCC 25922 assessed as inhibition of biofilm formation incubated for 24 hrs by crystal violet staining based analysis; assay type: functional, organism-based
[21] = tested on: Staphylococcus aureus; test: Induction of drug resistance against Staphylococcus aureus ATCC 25923 measured upto 15 passages by sequential passaging method; assay type: functional
[22] = tested on: Staphylococcus aureus; test: Inhibition of biofilm formation in Staphylococcus aureus ATCC 25923 assessed as inhibition of biofilm formation at 1/2 times MIC incubated for 24 hrs by crystal violet staining based analysis; assay type: functional, organism-based
[23] = tested on: Escherichia coli; test: Bactericidal activity against Escherichia coli ATCC 25922 assessed as inhibition of bacterial growth incubated upto 360 mins by time-kill assay; assay type: functional, organism-based
[24] = tested on: Staphylococcus aureus; test: Additive antibacterial activity against Staphylococcus aureus ATCC 25923 assessed as bacterial growth inhibition incubated for 18 hrs in presence of rifampicin by checkerboard assay; assay type: functional, organism-based
[25] = tested on: Escherichia coli; test: Inhibition of biofilm formation in Escherichia coli ATCC 25922 assessed as inhibition of biofilm formation at 1/4 times MIC incubated for 24 hrs by crystal violet staining based analysis; assay type: functional, organism-based
[26] = tested on: Cell membrane; test: Induction of outer membrane permeabilization in Escherichia coli ATCC 25922 assessed as increase in fluorescence intensity at 1 to 4 times MIC measured for 12 hrs by NPN uptake assay; assay type: subcellular
[27] = tested on: Staphylococcus aureus; test: Bactericidal activity against Staphylococcus aureus ATCC 25923 assessed as inhibition of bacterial growth at 2 times MIC measured upto 360 mins by time-kill assay; assay type: functional, organism-based
[28] = tested on: Staphylococcus aureus; test: Synergistic antibacterial activity against Staphylococcus aureus ATCC 25923 incubated for 18 hrs in presence of gentamycin by checkerboard assay; assay type: functional, organism-based
[29] = tested on: Escherichia coli; test: Bactericidal activity against Escherichia coli ATCC 25922 assessed as inhibition of bacterial growth at 1 times MIC measured at 120 mins by time-kill assay; assay type: functional, organism-based
[30] = tested on: Cell membrane; test: Induction of outer membrane permeabilization in Escherichia coli ATCC 25922 assessed as increase in fluorescence intensity at 4 times MIC measured for 12 hrs by NPN uptake assay; assay type: subcellular
[31] = tested on: Staphylococcus aureus; test: Additive antibacterial activity against Staphylococcus aureus ATCC 25923 assessed as bacterial growth inhibition incubated for 18 hrs in presence of gentamycin by checkerboard assay; assay type: functional, organism-based
[32] = tested on: Staphylococcus aureus; test: Synergistic antibacterial activity against Staphylococcus aureus ATCC 25923 incubated for 18 hrs in presence of rifampicin by checkerboard assay; assay type: functional, organism-based
[33] = tested on: Staphylococcus aureus; test: Bactericidal activity against Staphylococcus aureus ATCC 25923 assessed as inhibition of bacterial growth incubated upto 360 mins by time-kill assay; assay type: functional, organism-based
[34] = tested on: Escherichia coli; test: Additive antibacterial activity against Escherichia coli ATCC 25922 assessed as bacterial growth inhibition incubated for 18 hrs in presence of rifampicin by checkerboard assay; assay type: functional, organism-based
[35] = tested on: Staphylococcus aureus; test: Antibiofilm activity against Staphylococcus aureus ATCC 25923 assessed as biofilm eradication at 1 times MIC incubated for 24 hrs; assay type: functional, organism-based
[36] = tested on: Escherichia coli; test: Inhibition of biofilm formation in Escherichia coli ATCC 25922 assessed as inhibition of biofilm formation at 1/2 times MIC incubated for 24 hrs by crystal violet staining based analysis; assay type: functional, organism-based
[37] = tested on: Escherichia coli; test: Antimicrobial activity against Escherichia coli ATCC 25922 assessed as reduction in microbial growth measured for 18 hrs in presence of 512 microg/ml LPS; assay type: functional, organism-based
[38] = tested on: Escherichia coli; test: Bactericidal activity against Escherichia coli ATCC 25922 assessed as inhibition of bacterial growth at 1/2 times MIC measured at 180 mins by time-kill assay; assay type: functional, organism-based
[39] = tested on: Escherichia coli; test: Bactericidal activity against Escherichia coli ATCC 25922 assessed as inhibition of bacterial growth at 0.5 to 2 times MIC by time-kill assay; assay type: functional, organism-based; conditions: time <= 360.0 min, TDE = time-dependent effect
[40] = tested on: Cell membrane; test: Induction of cell membrane damage in Staphylococcus aureus ATCC 25923 at 2 times MIC measured at 30 mins by propidium iodide staining based flow cytometer assay; assay type: subcellular
[41] = tested on: Staphylococcus aureus; test: Induction of membrane morphological changes in Staphylococcus aureus ATCC 25923 assessed as appearance of blistered bacterial cells at 4 times MIC measured at 0.5 to 2 hrs by SEM analysis; assay type: functional, organism-based; conditions: time 0.5-2 hrs
[42] = tested on: Staphylococcus aureus; test: Bactericidal activity against Staphylococcus aureus ATCC 25923 assessed as inhibition of bacterial growth at 2 times MIC measured at 120 mins by time-kill assay; assay type: functional, organism-based
[43] = tested on: Staphylococcus aureus; test: Induction of membrane morphological changes in Staphylococcus aureus ATCC 25923 at 4 times MIC measured at 0.5 to 2 hrs by SEM analysis; assay type: functional, organism-based; conditions: time 0.5-2 hrs
[44] = tested on: Staphylococcus aureus; test: Bactericidal activity against Staphylococcus aureus ATCC 25923 assessed as inhibition of bacterial growth at 1/2 times MIC measured upto 360 mins by time-kill assay; assay type: functional, organism-based
[45] = tested on: Cell membrane; test: Induction of cell membrane damage in Escherichia coli ATCC 25922 at 2 times MIC after 0.5 to 2 hrs by propidium iodide staining based flow cytometer assay; assay type: subcellular; conditions: time 0.5-2 hrs
[46] = tested on: Escherichia coli; test: Antibacterial activity against Escherichia coli ATCC 25922 in presence of 10% mouse serum measured for 6 hrs; assay type: functional, organism-based
[47] = tested on: Staphylococcus aureus; test: Induction of membrane morphological changes in Staphylococcus aureus ATCC 25923 assessed as appearance of adherent bacterial cells at 4 times MIC measured at 0.5 to 2 hrs by SEM analysis; assay type: functional, organism-based; conditions: time 0.5-2 hrs
[48] = tested on: Escherichia coli; test: Antimicrobial activity against Escherichia coli ATCC 25922 assessed as reduction in microbial growth measured for 18 hrs in presence of […] microg/ml LPS; assay type: functional, organism-based
[49] = tested on: Staphylococcus aureus; test: Antibacterial activity against Staphylococcus aureus ATCC 25923 in presence of 10% mouse serum measured for 6 hrs; assay type: functional, organism-based
[50] = Acute toxicity in Kunming mouse assessed as survival rate at 20 mg/kg, ip measured for 7 days; assay type: organism-based; conditions: in vivo, 168 h, time 7 day
[51] = tested on: Erythrocyte; test: Hemolytic activity in mouse red blood cell assessed as hemolysis incubated for 1 hr; assay type: toxicity, cell-based; conditions: dose 4-256 µg/ml
[52] = Acute toxicity in Kunming mouse assessed as survival rate at 31.7 mg/kg, ip measured after 2 hrs; assay type: organism-based; conditions: in vivo
[53] = Acute toxicity in Kunming mouse assessed as survival rate at 20 to 31.7 mg/kg, ip measured at 2 hrs; assay type: organism-based; conditions: in vivo, dose 20-31.7 mg/kg
[54] = Acute toxicity in ip dosed Kunming mouse assessed as lethal dose measured upto 7 days; assay type: organism-based; conditions: Kunming, in vivo, time < 7 day

CC(C)CCCCC(=O)N[C@@H](CCN)C(=O)N[C@H](C(=O)N[C@@H](CCN)C(=O)N[C@H]1CCNC(=O)[C@H]([C@@H](C)O)NC(=O)[C@H](CCN)NC(=O)[C@H](CCN)NC(=O)[C@H](CC(C)C)NC(=O)[C@@H](Cc2ccccc2)NC(=O)[C@@H](CCN)NC1=O)[C@@H](C)O ({Heptanoyl(6-Me)}-[Dab]T[Dab][Dab][dDab][dF]L[Dab][Dab]T; lactam 4-C)
Activity [1]: Active
Activity [2]: Active
Activity [3]: Active
Activity [4]: Active
Activity [5]: Active
inhibition [6]: Active
Activity [7]: Active
inhibition [8]: Active
Activity [9]: Active
Activity [10]: Tde
Activity [11]: inactive
Activity [12]: Active
Activity [13]: Active
Activity [14]: Active
inhibition [15]: inactive
Activity [16]: Active
Activity [17]: Active
Activity [18]: Active
Activity [19]: Active
inhibition [20]: Dose-Dependent Effect
Activity [21]: Active
inhibition [22]: Active
Activity [23]: Dose-Dependent Effect
Activity [24]: Active
inhibition [25]: Active
Activity [26]: Active
Activity [27]: Active
Activity [28]: Active
Activity [29]: Active
Activity [30]: Active
Activity [31]: Active
Activity [32]: Active
Activity [33]: Dose-Dependent Effect
Activity [34]: Active
Activity [35]: inactive
inhibition [36]: inactive
Activity [37]: inactive
Activity [38]: Active
Activity [39]: Tde
Activity [40]: inactive
Activity [41]: Active
Activity [42]: Active
Activity [43]: Active
Activity [44]: inactive
Activity [45]: Active
Activity [46]: Active
Activity [47]: Active
Activity [48]: Active
Activity [49]: Active

CC(C)CCCCC(=O)N[C@@H](CCN)C(=O)N[C@H](C(=O)N[C@@H](CCN)C(=O)N[C@H]1CCNC(=O)[C@H]([C@@H](C)O)NC(=O)[C@H](CCN)NC(=O)[C@H](CCN)NC(=O)[C@H](CC(C)C)NC(=O)[C@@H](Cc2ccccc2)NC(=O)[C@H](CCN)NC1=O)[C@@H](C)O ({Heptanoyl(6-Me)}-[Dab]T[Dab][Dab][Dab][dF]L[Dab][Dab]T; lactam 4-C)
Activity [50]: Non-Toxic
HC10 [51]: 512 µg/mL
Activity [52]: Toxic
Activity [53]: Toxic
LD50 at 168 h [54]: 26.7 mg/kg
